This is an account of results in publication PMC11079024, “Identification of a family of species-selective complex I inhibitors as potential anthelmintics” (Nature Communications, 2024).

One experiment relates to adult H. polygyrus. As to the kind of experiment: microbe, parasite or virus in culture. It is filed as cell-based, Heligmosomoides polygyrus. The note with it: anaerobic, 24 hours after treatment; for killing at 10 µM: Heligmosomoides polygyrus, 24 h, adult H. polygyrus, affected = score equal to or lower than 1.5, read-out: Percent Worms Affected; for # of Worms Affected: worms with score equal to or lower than 1.5. In a few lines:
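Compounds at 10 µM were incubated 24 h with adult H. polygyrus at 37 °C under either aerobic conditions or an anaerobic atmosphere of 85% N2/10% CO2/5% H2. Two independent replicates; percentage of worms with manual motility score ≤1.5 (scale 0–3) reported.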

The next experiment relates to L1 wild-type C. elegans. As to the kind of experiment: whole plant or invertebrate. Particulars: Caenorhabditis elegans, 15 h, read-out: C. elegans KCN Survival Assay LC50.
Experiment [1] deals with C. elegans complex II (succinate dehydrogenase) (Caenorhabditis elegans, UniProt O62215+P41956+Q09545). Description: In vitro complex II activity assay, C. elegans mitochondria. The format is biochemical. In a few lines:
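Mitochondria isolated from adult C. elegans were diluted to 0.2 mg/mL protein and assayed for complex II by the DCIP-coupled method. A600 was read every 30 s over 15 min, with initial linear slope expressed as percent of solvent control. Screening was at 100 μM (≥3 biological replicates), followed by dose-response.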

Where “and” joins values, the source holds several entries; their conditions need not be identical. Equal values may be shown once. Read-outs that look alike come from different tables or passages of the source.

Sequence of C. elegans complex II (succinate dehydrogenase) (P41956 30-182): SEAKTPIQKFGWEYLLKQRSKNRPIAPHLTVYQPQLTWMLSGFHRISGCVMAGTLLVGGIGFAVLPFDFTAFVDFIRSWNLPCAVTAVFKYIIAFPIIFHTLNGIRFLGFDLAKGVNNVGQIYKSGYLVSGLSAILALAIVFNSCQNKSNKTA
Sequence of C. elegans complex II (succinate dehydrogenase) (Q09545 22-298): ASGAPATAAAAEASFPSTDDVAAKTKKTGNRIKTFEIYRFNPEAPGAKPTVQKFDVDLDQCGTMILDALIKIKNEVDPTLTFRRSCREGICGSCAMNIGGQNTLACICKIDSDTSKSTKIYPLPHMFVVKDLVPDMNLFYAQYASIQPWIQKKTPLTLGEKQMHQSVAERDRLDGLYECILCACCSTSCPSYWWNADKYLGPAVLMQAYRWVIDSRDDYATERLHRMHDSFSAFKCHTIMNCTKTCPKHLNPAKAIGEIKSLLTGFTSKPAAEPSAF
Sequence of C. elegans complex II (succinate dehydrogenase) (Q09508 32-646, further chain): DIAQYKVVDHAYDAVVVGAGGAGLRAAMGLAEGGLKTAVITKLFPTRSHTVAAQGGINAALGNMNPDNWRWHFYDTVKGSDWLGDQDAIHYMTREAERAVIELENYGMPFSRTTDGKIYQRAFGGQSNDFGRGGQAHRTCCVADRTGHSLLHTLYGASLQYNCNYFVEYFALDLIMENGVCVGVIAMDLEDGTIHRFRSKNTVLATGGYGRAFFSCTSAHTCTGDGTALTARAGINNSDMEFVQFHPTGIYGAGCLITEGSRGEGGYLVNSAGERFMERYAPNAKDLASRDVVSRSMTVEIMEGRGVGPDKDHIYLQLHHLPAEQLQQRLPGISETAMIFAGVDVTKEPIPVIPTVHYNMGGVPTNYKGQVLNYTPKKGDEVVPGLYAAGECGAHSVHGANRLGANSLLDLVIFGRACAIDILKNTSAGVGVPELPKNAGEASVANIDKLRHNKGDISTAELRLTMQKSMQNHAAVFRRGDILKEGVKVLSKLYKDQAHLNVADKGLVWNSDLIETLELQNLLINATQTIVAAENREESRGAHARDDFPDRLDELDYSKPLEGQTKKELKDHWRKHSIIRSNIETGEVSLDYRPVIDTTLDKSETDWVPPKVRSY
Sequence of C. elegans complex II (succinate dehydrogenase) (O62215 31-145): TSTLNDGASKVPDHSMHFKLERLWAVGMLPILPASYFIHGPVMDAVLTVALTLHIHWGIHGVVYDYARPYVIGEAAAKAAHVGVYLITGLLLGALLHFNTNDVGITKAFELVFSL

For the compound `Cc1ccccc1OCCCCn1cnc2ccccc21` [Compound 7732524], in the experiment with adult H. polygyrus (replicate 1), the killing at 10 µM is 60% and the “# of Worms Affected” value came to 3. Besides, in the experiment with adult H. polygyrus (replicate 2), the killing at 10 µM worked out at 0% and the “# of Worms Affected” value is 0. Also, the median lethal concentration (LC50) (as a rule, the concentration lethal to half of the exposed cells or organisms) in the experiment with L1 wild-type C. elegans came out at 6.4 µM.
For `Cc1nc2ccccc2n1Cc1ccc(Cl)cc1` [STK697993], in that order: 100%, 7, 33%, 2 and 8.2 µM.
As for `Cc1cc(O)c2c(c1)O[C@@]1(C)CC[C@H]3C(C)(C)CCC[C@]34CO[C@@H]2[C@H]41` [Siccanin], the remaining activity at 0.0001 µM in experiment [1] (dose 0.0001 µM, Mean of replicates, wild-type C. elegans, read-out: percent (%) in vitro complex II activity relative to solvent control) was found to be 103%; in experiment [1] (dose 0.0001 µM, individual replicates, wild-type C. elegans, read-out: percent (%) in vitro complex II activity relative to solvent control), 95.2%. In addition, the “percent (%) in vitro complex II activity relative to solvent control” value is 101.370% and 113.242% in experiment [1] (dose 0.0001 µM, individual replicates, wild-type C. elegans); 86.897% and 113.059% and 111.964% in experiment [1] (dose 0.0005 µM, individual replicates, wild-type C. elegans); 69.310% and 87.306% and 97.900% in experiment [1] (dose 0.001 µM, individual replicates, wild-type C. elegans); 54.828% and 79.635% and 95.343% in experiment [1] (dose 0.0025 µM, individual replicates, wild-type C. elegans); 62.831% and 72.146% in experiment [1] (dose 0.005 µM, individual replicates, wild-type C. elegans); 45.480% and 44.018% in experiment [1] (dose 0.013 µM, individual replicates, wild-type C. elegans). Besides, the “percent (%) in vitro complex II activity relative to solvent control” value in experiment [1] (dose 0.025 µM, individual replicates, wild-type C. elegans) was 28.128% and 27.763%; in experiment [1] (dose 0.063 µM, individual replicates, wild-type C. elegans), 17.717% and 11.872%; in experiment [1] (dose 0.125 µM, individual replicates, wild-type C. elegans), 1.897% and 15.890% and 10.411%; in experiment [1] (dose 0.313 µM, individual replicates, wild-type C. elegans) it was 4.655% and 12.968% and 2.009%; in experiment [1] (dose 0.625 µM, individual replicates, wild-type C. elegans), 3.621% and 6.210%; in experiment [1] (dose 1.5 µM, individual replicates, wild-type C. elegans), 5.345% and 10.046% and 12.785%. For the same compound, the “percent (%) in vitro complex II activity relative to solvent control” value is 3.448% and 7.854% in experiment [1] (dose 3 µM, individual replicates, wild-type C. elegans); 1.461% and 2.374% in experiment [1] (dose 15 µM, individual replicates, wild-type C. elegans); 5.480% in experiment [1] (dose 75 µM, individual replicates, wild-type C. elegans). Moreover, the remaining activity at 0.0005 µM in experiment [1] (dose 0.0005 µM, Mean of replicates, wild-type C. elegans, read-out: percent (%) in vitro complex II activity relative to solvent control) was 104%. Besides, in experiment [1] (dose 0.001 µM, Mean of replicates, wild-type C. elegans, read-out: percent (%) in vitro complex II activity relative to solvent control), the remaining activity at 0.001 µM turned out to be 84.8%. Moreover, the remaining activity at 0.0025 µM in experiment [1] (dose 0.0025 µM, Mean of replicates, wild-type C. elegans, read-out: percent (%) in vitro complex II activity relative to solvent control) came to 76.6%. Further, the remaining activity at 0.005 µM in experiment [1] (dose 0.005 µM, Mean of replicates, wild-type C. elegans, read-out: percent (%) in vitro complex II activity relative to solvent control) stood at 64.8%; in experiment [1] (dose 0.005 µM, individual replicates, wild-type C. elegans, read-out: percent (%) in vitro complex II activity relative to solvent control), 59.3%. For the same compound, the remaining activity at 0.013 µM in experiment [1] (dose 0.013 µM, Mean of replicates, wild-type C. elegans, read-out: percent (%) in vitro complex II activity relative to solvent control) was determined as 42.5%; in experiment [1] (dose 0.013 µM, individual replicates, wild-type C. elegans, read-out: percent (%) in vitro complex II activity relative to solvent control) it was 37.9%. The remaining activity at 0.025 µM in experiment [1] (dose 0.025 µM, Mean of replicates, wild-type C. elegans, read-out: percent (%) in vitro complex II activity relative to solvent control) worked out at 27.5%; in experiment [1] (dose 0.025 µM, individual replicates, wild-type C. elegans, read-out: percent (%) in vitro complex II activity relative to solvent control), 26.6%. Moreover, the remaining activity at 0.063 µM is 13% in experiment [1] (dose 0.063 µM, Mean of replicates, wild-type C. elegans, read-out: percent (%) in vitro complex II activity relative to solvent control) and 9.48% in experiment [1] (dose 0.063 µM, individual replicates, wild-type C. elegans, read-out: percent (%) in vitro complex II activity relative to solvent control). Besides, the remaining activity at 0.125 µM in experiment [1] (dose 0.125 µM, Mean of replicates, wild-type C. elegans, read-out: percent (%) in vitro complex II activity relative to solvent control) was found to be 9.4%. In experiment [1] (dose 0.313 µM, Mean of replicates, wild-type C. elegans, read-out: percent (%) in vitro complex II activity relative to solvent control), the remaining activity at 0.313 µM came out at 6.54%. In addition, the remaining activity at 0.625 µM in experiment [1] (dose 0.625 µM, Mean of replicates, wild-type C. elegans, read-out: percent (%) in vitro complex II activity relative to solvent control) was determined as 3.28%. The remaining activity at 1.5 µM in experiment [1] (dose 1.5 µM, Mean of replicates, wild-type C. elegans, read-out: percent (%) in vitro complex II activity relative to solvent control) turned out to be 9.39%. In addition, the remaining activity at 3 µM in experiment [1] (dose 3 µM, Mean of replicates, wild-type C. elegans, read-out: percent (%) in vitro complex II activity relative to solvent control) is 3.77%. For the same compound, the remaining activity at 15 µM in experiment [1] (dose 15 µM, Mean of replicates, wild-type C. elegans, read-out: percent (%) in vitro complex II activity relative to solvent control) was determined as 1.28%. Also, the remaining activity at 37.5 µM came out at 0% in experiment [1] (Mean of replicates, wild-type C. elegans, read-out: percent (%) in vitro complex II activity relative to solvent control) and 0% in experiment [1] (individual replicates, wild-type C. elegans, read-out: percent (%) in vitro complex II activity relative to solvent control). In addition, the remaining activity at 75 µM in experiment [1] (dose 75 µM, Mean of replicates, wild-type C. elegans, read-out: percent (%) in vitro complex II activity relative to solvent control) was found to be 1.83%. Besides, in experiment [1] (wild-type (N2) mitochondria), the half-inhibitory concentration (IC50) (as a rule, the point on the concentration scale where inhibition reaches its midpoint) was determined as 10.7 nM. Moreover, the 50% lethal concentration (LC50) in the experiment on L1 wild-type C. elegans was 6.3 µM.
`CC(C)Cc1ccc(C(C)c2nc3ccccc3n2C)cc1` (centres unmarked) [NPD8790]: the activity at 100 µM worked out at 99.7% in experiment [1] (100 µM compound, relative to solvent control, mean (SEM), read-out: % Activity Complex II) and 99.7% in experiment [1] (100 μM of NPD compound, C. elegans mitochondria, mean of four biological replicates, read-out: Percent in vitro activity, Complex II (Mean)). Moreover, the “Percent in vitro activity, Complex II (single replicate Rep1-Rep4)” value in experiment [1] (100 μM of NPD compound, C. elegans mitochondria, individual biological replicates, 100 µM) is 81.090% and 92.425% and 103.697% and 121.642%. Also, the LC50 in the experiment with L1 wild-type C. elegans came out at 14.3 µM.
